Source: patent US6936719B2, “Biaryl compounds as serine protease inhibitors” (BioCryst Pharmaceuticals, Inc., priority 2001, dated 2005)

Key:
Format in all cases: biochemical
TF/FVIIa = TF/FVIIa (Homo sapiens, UniProt P08709); assay: In vitro amidolytic assay for inhibition of TF/FVIIa (Spectrozyme-FVIIa, pNA absorbance at OD405)
Protocol: In Vitro Assay for Inhibition of TF/FVIIa
To assess the inhibition of the test compounds against the target enzyme, TF/FVIIa, an amidolytic assay based upon the absorbance of p-Nitroanalide (pNA) at OD405 was utilized. The IC50 of the test compounds was determined by using KC4A data reduction software (Bio-Tek Instruments) to interpolate percent inhibition from observed Vmax values.
TF/FVIIa assay reactions were performed in a 200 μL mixture containing 4 nM FVIIa, 10 nM lipidated tissue factor, in an assay buffer containing 100 mM Tris, pH 7.2, 150 mM NaCl, 5 mM calcium chloride, 0.1% bovine serum albumin (BSA), and 10% dimethyl sulfoxide (DMSO). TF and FVIIa were allowed to equilibrate at room temperature for 15 minutes. Test compounds dissolved in DMSO were incubated at varied concentrations with TF/FVIIa for 10 minutes, followed by addition of 500 µM substrate Spectrozyme-FVIIa. Reactions were incubated for 5 minutes at room temperature prior to measuring the change in OD405 run for 10 minutes at 21 second intervals with a Powerwave x (Bio-Tek Instruments) microplate reader.

human thrombin = human thrombin (Homo sapiens, UniProt P00734); assay: In vitro colorimetric assay for human thrombin (Nα-Benzoyl-Phe-Val-Arg-p-Nitroanilide, OD405)
Protocol: In Vitro Assay for Human Thrombin
This colorimetric assay was used to assess the ability of the test compounds to inhibit the human thrombin enzyme. IC50 of the test compounds was determined by using KC4A data reduction software (Bio-Tek Instruments) to interpolate percent inhibition from observed Vmax values.
Thrombin assay reactions were performed in a 200 μL mixture containing human thrombin at (1 U/mL) in an assay buffer containing 100 mM HEPES, 10 mM calcium chloride, and 10% DMSO, pH 7.5. Test compounds dissolved in DMSO were added to thrombin enzyme reactions at varied concentrations, followed by the addition of substrate Nα-Benzoyl-Phe-Val-Arg-p-Nitroanilide at a final concentration of 1 mM. Reactions were incubated for 5 minutes at room temperature prior to measuring the change in OD405 nm for 10 minutes at 21 second intervals with a Powerwave x (Bio-Tek Instruments) microplate reader.

human pancreatic trypsin = assay: In vitro enzymatic assay for human trypsin (L-BAPNA, OD405)
Protocol: In Vitro Assay for Human Trypsin
This enzymatic assay was employed to evaluate the ability of the test compounds to inhibit human pancreatic trypsin. IC50 of the test compounds was determined by using KC4A data reduction software (Bio-Tek Instruments) to interpolate percent inhibition from observed Vmax values.
Trypsin assay reactions were performed in a 200 μL mixture containing human pancreatic trypsin at 1 μg/mL in an assay buffer containing 200 mM triethanolamine (TEA), 10 mM calcium chloride, 10% DMSO, pH 7.8. Test compounds dissolved in DMSO were added to trypsin enzyme reactions at varied concentrations, followed by the addition of substrate Nα-Benzoyl-L-Arginine p-Nitroanilide (L-BAPNA) at a final concentration of (0.25 mg/mL). Reactions were incubated for 5 minutes at room temperature prior to measuring the change in OD405 nm for 10 minutes at 21 second intervals with a Powerwave x (Bio-Tek Instruments) microplate reader.

Sequence of TF/FVIIa (P08709 213-466 limits assumed): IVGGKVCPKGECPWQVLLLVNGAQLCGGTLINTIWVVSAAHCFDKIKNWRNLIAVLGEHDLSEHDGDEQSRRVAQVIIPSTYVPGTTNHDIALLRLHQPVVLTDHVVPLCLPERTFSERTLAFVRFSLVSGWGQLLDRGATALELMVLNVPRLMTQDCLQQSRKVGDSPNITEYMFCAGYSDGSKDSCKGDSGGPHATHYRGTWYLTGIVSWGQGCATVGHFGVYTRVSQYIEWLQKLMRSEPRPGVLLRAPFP
Sequence of TF/FVIIa (P08709 61-212 limits assumed): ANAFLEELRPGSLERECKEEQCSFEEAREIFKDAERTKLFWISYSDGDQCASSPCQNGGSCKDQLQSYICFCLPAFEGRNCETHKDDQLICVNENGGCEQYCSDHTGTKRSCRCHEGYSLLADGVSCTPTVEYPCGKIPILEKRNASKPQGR
Sequence of TF/FVIIa (P13726 33-295 partner): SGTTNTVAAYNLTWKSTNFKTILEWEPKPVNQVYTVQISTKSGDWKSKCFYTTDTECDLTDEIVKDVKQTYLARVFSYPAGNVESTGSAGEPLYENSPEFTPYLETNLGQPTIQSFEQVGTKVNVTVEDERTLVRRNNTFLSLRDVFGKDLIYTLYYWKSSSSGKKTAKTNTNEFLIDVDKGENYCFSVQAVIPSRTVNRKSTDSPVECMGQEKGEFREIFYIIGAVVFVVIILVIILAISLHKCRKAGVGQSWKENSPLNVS

Structure (SMILES)	IC50 (TF/FVIIa)	IC50 (human thrombin)	IC50 (human pancreatic trypsin)
CC(C)CNC(=O)c1ccc(-c2ccc(C#CC(C)(C)O)cc2C(=O)Nc2ccc(C(=N)N)cc2)c(C(=O)O)c1	> 100 nM		
C#CCNC(=O)c1ccc(-c2ccc(-c3ccco3)cc2C(=O)Nc2ccc(C(=N)N)cc2)c(C(=O)O)c1	< 100 nM	> 1000 nM	100 to 1000 nM
C=Cc1ccc(-c2ccc(C(=O)NC(CCC)CCC)cc2C(=O)O)c(C(=O)Nc2ccc(C(=N)N)cc2)c1	< 100 nM	> 1000 nM	100 to 1000 nM
N=C(N)c1ccc(NC(=O)c2cc(-c3ccco3)ccc2-c2ccc(C(=O)NCCCCCC(=O)O)cc2C(=O)O)cc1	< 100 nM	> 1000 nM	100 to 1000 nM

Continued, values first:

IC50 (TF/FVIIa)	IC50 (human thrombin)	IC50 (human pancreatic trypsin)	Structure (SMILES)
> 100 nM	> 1000 nM	> 1000 nM	CC(C)CNC(=O)c1ccc(-c2ccc(-c3ccncc3)cc2C(=O)Nc2ccc(C(=N)N)cc2)c(C(=O)O)c1
> 100 nM	> 1000 nM	> 1000 nM	CC(C)CNC(=O)c1ccc(-c2ccc(-c3ccc(CO)s3)cc2C(=O)Nc2ccc(C(=N)N)cc2)c(C(=O)O)c1
> 100 nM	> 1000 nM	> 1000 nM	CC(C)CNC(=O)c1ccc(-c2ccc(-c3nccs3)cc2C(=O)Nc2ccc(C(=N)N)cc2)c(C(=O)O)c1
> 1000 nM			CC(C)CNC(=O)c1ccc(-c2cc(Oc3ccccc3)ccc2C(=O)Nc2ccc(C(=N)N)cc2)c(C(=O)O)c1
> 100 nM			CC(C)CNC(=O)c1ccc(-c2cc(-c3cccs3)ccc2C(=O)Nc2ccc(C(=N)N)cc2)c(C(=O)O)c1
< 100 nM	> 1000 nM	100 to 1000 nM	C=Cc1ccc(-c2ccc(C(=O)NCC(C)C)cc2C(=O)O)c(C(=O)Nc2ccc(C(=N)N)cc2)c1
